Earlier results as cited in patent US11191273B2, “Methods of making pyranopyrans such as pyranopyran nitrile and methods of using pyranopyrans such as pyranopyran nitrile” (The United States of America, as Represented by the …, priority 2018, dated 2021).

System: cork oak (Quercus suber) cuttings
Conditions: literature; cited from earlier work

For `C[C@H](O)[C@H]1C=C[C@@H]2OC(=O)C=C[C@@H]2O1` [Diplopyrone, 6-[(1S)-1-hydroxyethyl]-2,4a(S),6(R),8a(S)-tetrahydropyrano-[3,2-b]-pyran-2-one], the phytotoxic effect is listed as “causes necrosis and wilting”.
